Experimental data: the supplement of paper PMC10307832

Tests used:
Assay in all cases: relative viability (nuclei count vs DMSO), 5 days (fraction); higher = more cells survive
[1] = compound: CC1=CC(=CC=C1)NC2=NC(=CS2)C3=CC=NC=C3 + CS(=O)(=O)N1CCN(Cc2cc3nc(-c4cccc5[nH]ncc45)nc(N4CCOCC4)c3s2)CC1 [Pictilisib] (partner 1 µM)
Procedure, shortened: (§1)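 Dosing by pin tool came one day after lung cancer cell lines were seeded in 1536-well plates, using either one drug or a fixed anchor-drug dose plus five library-drug doses (not always all listed) in √10 steps. After 5 days, nuclei were counted on 4× images. Relative viability is treated-well nuclei count divided by vehicle-well nuclei count, and values are medians of duplicate plates.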

Masitinib + Phenformin = compound: Cc1ccc(NC(=O)c2ccc(CN3CCN(C)CC3)cc2)cc1Nc1nc(-c2cccnc2)cs1 [Masitinib] + N=C(N)NC(=N)NCCc1ccccc1 [Phenformin] (partner 250 µM)
Procedure, shortened: as §1

[2] = compound: CC1=CC(=CC=C1)NC2=NC(=CS2)C3=CC=NC=C3 + NC(=O)Nc1cc(-c2cccc(F)c2)sc1C(=O)N[C@H]1CCCNC1 [AZD7762] (partner 0.2 µM)
Procedure, shortened: as §1

[3] = compound: CC1=CC(=CC=C1)NC2=NC(=CS2)C3=CC=NC=C3 + CC(=O)Nc1cccc(-n2c(=O)n(C3CC3)c(=O)c3c(Nc4ccc(I)cc4F)n(C)c(=O)c(C)c32)c1 [Trametinib] (partner 0.02 µM)
Procedure, shortened: as §1

Cell Line	relative viability ([1]; first compound 0.08 µM)	relative viability ([1]; first compound 0.253 µM)	relative viability ([1]; first compound 0.8 µM)	relative viability ([1]; first compound 2.53 µM)	relative viability ([1]; first compound 8 µM)	relative viability (Masitinib + Phenformin; first compound 0.03162 µM)	relative viability (Masitinib + Phenformin; first compound 0.1 µM)	relative viability (Masitinib + Phenformin; first compound 0.3162 µM)	relative viability (Masitinib + Phenformin; first compound 1 µM)	relative viability ([2]; first compound 0.08 µM)	relative viability ([2]; first compound 0.253 µM)	relative viability ([2]; first compound 0.8 µM)	relative viability ([2]; first compound 2.53 µM)	relative viability ([2]; first compound 8 µM)	relative viability ([3]; first compound 0.08 µM)	relative viability ([3]; first compound 0.253 µM)	relative viability ([3]; first compound 0.8 µM)	relative viability ([3]; first compound 2.53 µM)	relative viability ([3]; first compound 8 µM)	relative viability (Masitinib + Phenformin; first compound 0.01 µM)
NCI-H1755	0.339	0.401	0.338	0.344	0.367	0.51	0.545	0.597	0.581	0.491	0.418	0.46	0.486	0.376	0.734	0.735	0.612	0.642	0.522	–
EMC-BAC-2	0.449	0.496	0.53	0.48	0.554	0.494	0.524	0.53	0.457	0.933	1.02	1.14	0.909	1.17	0.798	–	1.01	0.879	0.823	0.485
NCI-H596	0.347	0.378	0.34	0.402	0.264	0.769	0.824	0.831	0.691	0.913	0.98	0.959	1.15	0.86	0.731	0.761	0.575	0.642	0.586	0.836
NCI-H650	0.771	0.863	0.893	–	0.822	0.428	0.514	0.303	0.425	0.766	0.896	1.05	0.926	0.999	0.837	1.07	1.04	0.956	0.964	0.508
NCI-H1915	0.834	0.853	0.888	0.759	0.92	0.367	–	0.401	0.349	0.755	0.665	0.689	0.686	0.667	0.308	0.29	0.27	0.266	0.27	–
ChaGo-K-1	0.697	0.447	0.691	0.36	0.639	0.455	0.511	0.467	0.411	0.842	0.83	0.835	0.828	0.75	0.903	0.882	0.858	0.929	0.839	0.509
NCI-H1355	0.268	0.315	0.348	0.292	0.327	0.384	0.478	0.379	0.406	0.657	0.654	0.513	0.653	0.558	0.388	0.298	0.275	0.294	0.269	0.462
NCI-H1651	0.476	0.651	0.749	0.465	0.588	0.29	0.337	0.375	0.31	0.5	0.473	0.416	0.426	0.366	0.825	0.795	0.755	0.82	0.794	0.341
